From US10724949B2, “Cuvette for detecting bacteria and determining their susceptibility to antibiotics” (BacterioScan LTD., priority 2005, dated 2020)

Tested on: E. coli
Assay: Light scattering (speckles image difference plots) test of bacterial susceptibility to an antibiotic agent in a filtered urine sample
Format: cell-based
Settings: gentamicin 1% in test cuvette
From the text: Background signal originated by particles suspended in the sample of fluid that are larger than the bacteria are excluded by mechanically filtering according to the method of the present invention. However there are sources and light scatterers other than the bacteria that can contribute a stationary background signal. Such signals are typically originated by stationary particles present within the illuminated space, impurity of the light source, defects in, and or particles contaminating, the optical components. Therefore a difference plot is computed for excluding stationary background according to a preferred embodiment of the present invention. The intensity measured in every pixel of a speckles image is subtracted from the intensity measured in the same pixel of a preceding speckles image to form a difference plot. […]
For determining the susceptibility of bacteria to an antibiotic agent, an average value of at least two averaged derivatives computed first for a test cuvette, immediately following the introduction of an antibiotic agent, are compared to an average of the same number of averaged derivatives computed for speckles images received a few minutes later, preferably after more than 5 minutes. The antibiotic agent for which the difference between these averaged derivatives is the larger is determined. […]

gentamicin
concentration of non-stationary scatterers (difference plots of speckles images) (urine containing E. coli 10^5 CFU/ml, difference plot 30 minutes later vs immediately following introduction (FIG. 9B, 9C)): significant reduction | values of the averaged derivative of the concentration of scatterers in time (normalised by their maximal value) (urine containing E. coli, a few minutes after the introduction of the antibiotics (FIG. 9D)): significant reduction (of a few tens of percents)
